Measurements reported in US9809595B2 (priority 2013, dated 2017).

How the values were obtained:
[1] = tested on: Salmonella typhimurium strain SJW1103; assay: Bacterial growth assay; format: cell-based; details: 5 μl of 100 mM compound in DMSO added to 10 ml LB, 303 K, OD600 read at 2, 4, 6, 8 and 10 hr; FIG. 6
Experimental: The effect of the candidate compounds on the viability of bacteria cultures were first tested before analyzing their effect on the flexibility of FlhBC. 80 compounds out of the 237 compounds were purchased from KISHIDA CHEMICAL Co., Ltd according to the ranking. The Salmonella typhimurium strain SJW1103 was grown in LB medium at 303 K. Overnight cultures were diluted in Fresh LB medium to an optical density at 600 nm (OD600) of 0.1. Each of 5 μl of 100 mM candidate compounds solubilized in DMSO or DMSO alone as a control was added into 10 ml LB medium in 50-ml volume polypropylene conical tubes. For obtaining growth curves of the cell under the presence of each chemical, 0.2 ml of the culture volume were removed at every 2 h (2, 4, 6, 8 and 10 hr) and diluted with 1 ml of LB to measure absorbance at OD600.

secretion of FlgD = assay: Secretion assay (Western blot of culture supernatant with anti-FlgD antibody); format: cell-based, Salmonella typhimurium; details: supernatant of 8.0 hr culture from the growth assay, strain SJW1103; FIG. 7a and 7b
Experimental: Then, effects of the selected compounds on different type III secretion phenotypes were assessed. 1 ml of the cell suspensions of 8.0 hr culture in the above-growth assay were centrifuged at 13,200 rpm (16,100 g) for 10 min. The supernatant fractions (0.9 ml) were fractionated into new tubes and mixed with 100% trichloroacetic acid thoroughly. The fractions were kept on ice at least 1 h to precipitate secreted proteins. After centrifugation at 15,400 rpm for 30 min, the precipitated supernatant fractions were resuspended in 0.02 ml of 1 M Tris base and stored −30° C. until use. Samples for SDS-PAGE analysis were prepared by adding 5× SDS loading Buffer and then heat at 95° C. for 5 min. SDS-PAGE analyses were carried out at the condition of 200V for 30 min using premade gels purchased from Bio-rad. Electro-blotting onto PVDF membrane was performed with iBlot from Invitrogen and the membranes were developed with Chromogenic Immuno-detection Kit (Invitrogen) using a custom antibody raised against FlgD, a flagellar protein (from Prof. Keiichi Namba, Osaka University). Images were digitized as gray scale color with ChemDoc (Bio-rad). Kaleidoscope (Bio-rad) was used as a molecular marker.

| SMILES | effect on bacterial growth (growth curve, OD600) [1] | inhibition of FlgD secretion (type III secretion system) (secretion of FlgD) |
| --- | --- | --- |
| Cn1c(=O)c2c(ncn2CC(O)CO)n(C)c1=O (stereo not shown) [compound 47, 7-(2,3-dihydroxypropyl)-1,3-dimethyl-3,7-dihydro-1H-purine-2,6-dione] | slight growth delay | inhibit the secretion of FlgD |
| COc1cc(Cc2cnc(N)nc2N)cc(OC)c1OC [compound 64, 5-(3,4,5-Trimethoxybenzyl)pyrimidine-2,4-diamine] | slight growth delay | inhibit the secretion of FlgD |
